Tests used:
Assay type in all cases: physicochemical
[1] = Lipid nanoparticle size and polydispersity by dynamic light scattering; details: LNP of lipid/DSPC/cholesterol/PEG-lipid 50:10:38.5:1.5 encapsulating hEPO mRNA
Description: (§1) Briefly, a cationic lipid provided herein, DSPC, cholesterol, and PEG-lipid were solubilized in ethanol at a molar ratio of 50:10:38.5:1.5, and mRNA were diluted in 10 to 50 mM citrate buffer, pH=4. The LNPs were prepared at a total lipid to mRNA weight ratio of approximately 10:1 to 30:1 by mixing the ethanolic lipid solution with the aqueous mRNA solution at a volume ratio of 1:3 using a microfluidic apparatus, total flow rate ranging from 9-30 mL/min. Ethanol were thereby removed and replaced by DPBS using dialysis. Finally, the lipid nanoparticles were filtered through a […] sterile filter.
(§2) Lipid nanoparticle size were determined by dynamic light scattering using a Malvern Zetasizer Nano ZS (Malvern UK) using a […] backscatter detection mode. The encapsulation efficiency of lipid nanoparticles were determined using a Quant-it Ribogreen RNA quantification assay kit (Thermo Fisher Scientific, UK) according to the manufacturer's instructions.

[2] = Apparent pKa of LNP formulations, TNS fluorescence assay; details: LNP cationic lipid/DSPC/cholesterol/DMG-PEG 50/10/38.5/1.5 mol %
Description: As reported in literature, the apparent pKa of LNP formulations correlates with the delivery efficiency of LNPs for nucleic acids in vivo. The apparent pKa of each formulation was determined using an assay based on fluorescence of 2-(p-toluidino)-6-napthalene sulfonic acid (TNS). LNP formulations comprising of cationic lipid/DSPC/cholesterol/DMG-PEG (50/10/38.5/1.5 mol %) in PBS were prepared as described above. TNS was prepared as a 300 μM stock solution in distilled water. LNP formulations were diluted to 0.1 mg/mL total lipid in 3 mL of buffered solutions containing 50 mM sodium citrate, 50 mM sodium phosphate, 50 mM sodium borate, and 30 mM sodium chloride where the pH ranged from 3 to 9. An aliquot of the TNS solution was added to give a final concentration of […] and following vortex mixing fluorescence intensity was measured at room temperature in a Molecular Devices Spectramax iD3 spectrometer using excitation and mission wavelengths of 325 nm and 435 nm. A sigmoidal best fit analysis was applied to the fluorescence data and the pKa value was measured as the pH giving rise to half-maximal fluorescent intensity.

[3] = Encapsulation efficiency of lipid nanoparticles, Quant-it Ribogreen RNA assay; details: LNP of lipid/DSPC/cholesterol/PEG-lipid 50:10:38.5:1.5 encapsulating hEPO mRNA
Description: as §1, §2

Row | Structure (SMILES) | polydispersity [1] | size (nm) [1] [nm] | Apparent Pka [2] | Encapsulation Efficiency [3] [%]
1 | CCCCCCCCOC(=O)C(CCCCN(CCN(CCO)CCCCCC(=O)OCC(CCCCCC)CCCCCCCC)C1CCC1)C(=O)OCCCCCCCC (stereo not shown) [Compound 223] | 0.043 | 70.98 | 6.395 | 93.03
2 | CCCCCCCCCCCC(=O)OCCCCCN(CCN(CCO)CCCCCOC(=O)CC(CCCCCCCC)CCCCCCCC)C1CCCCCCC1 [Compound 95] | 0.103 | 55.48 | 6.271 | 92.04
3 | CCCCCCCC(=O)OCC(CCCCN(CCO)CCN(CCCCC(COC(=O)CCCCCCC)COC(=O)CCCCCCC)C1CCCCCCC1)COC(=O)CCCCCCC [Compound 161] | 0.090 | 72.08 | 6.02 | 87.54
4 | CCCCCCCC(=O)OCC(COCCN(CCO)CCN(CCOCC(COC(=O)CCCCCCC)COC(=O)CCCCCCC)C1CCC1)COC(=O)CCCCCCC [Compound 178] | 0.056 | 96.32 | 6.337 | 89.15
5 | CCCCCCCCC(CCCCCC)CNC(=O)CCCCCN(CCCCN(CCO)CCCCC(COC(=O)CCCCCCC)COC(=O)CCCCCCC)C1CC1 (stereo not shown) [Compound 195] | 0.153 | 104.2 | 6.925 | 83.82
6 | CCCCCCCCC(CCCCCCCC)CNC(=O)CCCCCN(CCNc1c(NC)c(=O)c1=O)CCN(C)CCCCCC(=O)OCC(CCCCCCCC)CCCCCCCC [Compound 96] | 0.087 | 57.20 | 7.287 | 97.00
7 | CCCCCCCCCCCC(=O)OCC(CCCCN(CCO)CCN(CCCCC(COC(=O)CCCCCCCCCCC)COC(=O)CCCCCCCCCCC)C1CCC1)COC(=O)CCCCCCCCCCC [Compound 169] | 0.153 | 73.05 | 6.447 | 89.88
8 | CCCCCCCCCCCOC(=O)CCCCCN(CCN(CCO)CCCCC(COC(=O)CCCCCCC)COC(=O)CCCCCCC)C1CCCCC1 [Compound 221] | 0.07 | 99.33 | 6.316 | 93.71
9 | CCCCCCCCC(CCCCCCCC)COC(=O)CCCCCN(CCO)CCN(CCCCCC(=O)OCC(CCCCCCCC)CCCCCCCC)C1CCC(F)(F)CC1 [Compound 66] | 0.068 | 56.3 | 6.009 | 93.17
10 | CCCCCCCC/C=C\CCCCCCCC(=O)OCCCCCN(CCN(CCO)CCCCCC(=O)OCC(CCCCCCCC)CCCCCCCC)C1CCCCC1 [Compound 109] | 0.032 | 78.27 | 6.348 | 92.54
11 | CCCCCCCCC(CCCCCCCC)COC(=O)CCCCCN(C)CCN(CCCCCC(=O)OCC(CCCCCCCC)CCCCCCCC)CCNc1c(NC)c(=O)c1=O [Compound 79] | 0.104 | 69.09 | 6.914 | 96.26
12 | CCCCCCCCC(CCCCCCCC)COC(=O)CCCCCN(CCO)CCN(CCCCCC(=O)OCC(CCCCCCCC)CCCCCCCC)Cc1ccc(C)cc1 [Compound 39] | 0.034 | 55.02 | 5.740 | 84.0
13 | CCCCCCCCC(CCCCCCCC)COC(=O)CCCCCN(CCO)CCN(CCCCCOC(=O)OCC(CCCCCCCC)CCCCCCCC)C1CCCCC1 [Compound 133] | 0.267 | 74.57 | 5.990 | 94.56
14 | CCCCCCCC(=O)OCC(CCCCN(CCO)CCN(CCCCC(COC(=O)CCCCCCC)COC(=O)CCCCCCC)C1CCCCC1)COC(=O)CCCCCCC [Compound 141] | 0.128 | 63.69 | 6.475 | 88.11
15 | CCCCCCCCOC(CCCCCN(CCO)CCN(CCCCCC(=O)OCC(CCCCCC)CCCCCCCC)C1CCC1)OCCCCCCCC (stereo not shown) [Compound 201] | 0.028 | 91.64 | 6.226 | 94.15
16 | CCCCCCCC(=O)OCC(CCCCN(CCO)CCCCN(CCCCC(COC(=O)CCCCCCC)COC(=O)CCCCCCC)C(C)C)COC(=O)CCCCCCC [Compound 189] | 0.114 | 87.22 | 6.542 | 93.88
17 | CCCCCCCCC(CCCCCCCC)CC(=O)NCCCCCN(CCN(CCO)CCCCCOC(=O)CC(CCCCCCCC)CCCCCCCC)C1CCC1 [Compound 61] | 0.026 | 66.08 | 6.731 | 95.4
18 | CCCCCCCCC(CCCCCCCC)CNC(=O)CCCCCN(CCN(CCCCO)CCCCCC(=O)OCC(CCCCCCCC)CCCCCCCC)C1CCC1 [Compound 77] | 0.006 | 84.87 | 6.485 | 92.71
19 | CCCCCCCCC(CCCCCCCC)CNC(=O)CCCCCN(CC=C(C)C)CCN(CCO)CCCCCC(=O)NCC(CCCCCCCC)CCCCCCCC [Compound 122] | 0.066 | 65.77 | 6.817 | 93.47
20 | CCCCCCCCCCCOC(=O)CCCCCN(CCN(CCO)CCCCCC(=O)OCC(CCCCCCCC)CCCCCCCC)C1CC(F)(F)C1 [Compound 50] | 0.235 | 59.59 | 5.786 | 93.4
21 | CCCCCCCCC(CCCCCCCC)COC(=O)CCCCCN(CCO)CCN(CCCCCC(=O)OCC(CCCCCCCC)CCCCCCCC)CC1CCCC1 [Compound 35] | 0.089 | 54.18 | 5.843 | 90.0
22 | CCCCCCCCC(CCCCCCCC)COC(=O)/C=C/CN(CCO)CCN(CCCCCC(=O)OCC(CCCCCCCC)CCCCCCCC)C1CCC1 [Compound 63] | 0.044 | 87.84 | 6.147 | 93.93

Reference: US20230348362A1, “LIPID COMPOUNDS AND LIPID NANOPARTICLE COMPOSITIONS” (Suzhou Abogen Biosciences Co., Ltd., priority 2021, published 2023)
